Data from paper PMC11390765 (Cancer Chemotherapy and Pharmacology, 2024).

Legend:
[1] = system: all three isoforms of AKT; set-up: method as in PMID 22294718; conditions: cited from earlier work
[2] = Safety and tolerability (adverse events, CTCAE v5.0; full analysis set); assay type: in vivo, human
Protocol: Safety and tolerability were evaluated in terms of AEs, which were classified and graded according to the National Cancer Institute (NCI) Common Terminology Criteria for Adverse Events (CTCAE) v5.0; vital signs; 12-lead electrocardiogram (ECG); and clinical laboratory assessments, including clinical chemistry and hematology parameters, urinalysis, HbA1c levels, and lipid profiles.
Efficacy analyses were also performed on the full analysis set. Summary and/or descriptive statistics were used to analyze baseline demographic, safety, and efficacy data; PFS and DoR were estimated using Kaplan–Meier methodology.

[3] = part B period 4, capivasertib only 400 mg BID, N=19
[4] = period 2, days 2–7 cycle 1, capivasertib only 400 mg BID, N=21
[5] = total, all treatment periods, N=21

NC1(C(=O)N[C@@H](CCO)c2ccc(Cl)cc2)CCN(c2nc[nH]c3nccc2-3)CC1 [capivasertib]
inhibition of AKT isoforms [1]: potent, selective inhibitor | QT prolongation ([2]; ECG, whole study): no reports of QT prolongation | patients requiring a capivasertib dose interruption due to AEs ([2]; N = 21): 66.7% | patients requiring a capivasertib dose reduction due to AEs ([2]; N = 21): 23.8% | patients with AEs leading to permanent discontinuation of capivasertib ([2]; N = 21): Three | safety profile ([2]; administered with or without midazolam): manageable safety profile | Anemia, frequency of patients overall ([2]; all treatment periods, N = 21): 28.6% | Diarrhea, frequency of patients overall ([2]; all treatment periods, N = 21): 76.2% | Fatigue, frequency of patients overall ([2]; all treatment periods, N = 21): 33.3% | Hyperglycemia, frequency of patients overall ([2]; all treatment periods, N = 21): 28.6% | Nausea, frequency of patients overall ([2]; all treatment periods, N = 21): 33.3% | patients who experienced grade 3 AEs ([2]; in total, N = 21): 57.1% | patients who experienced grade ≥ 3 AEs ([2]; in total, N = 21): 66.7% | serious AEs (SAEs) reported in the study ([2]; n = 1 period 2, n = 1 period 3, n = 3 part B, only one considered related to study treatment): five | deaths during the study ([2]; one in part A, three in part B, none deemed possibly related to study treatment): four | Abdominal pain, any grade [2, 3]: 1 (5.3) n (%) | Abdominal pain, grade ≥ 3 [2, 3]: 1 (5.3) n (%) | Anemia, any grade [2, 3]: 4 (21.1) n (%) | Anemia, grade ≥ 3 [2, 3]: 0 n (%) | Any AE, any grade [2, 3]: 17 (89.5) n (%) | Any AE, grade ≥ 3 [2, 3]: 9 (47.4) n (%) | Asthenia, any grade [2, 3]: 2 (10.5) n (%) | Asthenia, grade ≥ 3 [2, 3]: 1 (5.3) n (%) | Blood alkaline phosphatase increased, any grade [2, 3]: 0 n (%) | Blood alkaline phosphatase increased, grade ≥ 3 [2, 3]: 0 n (%) | Blood bilirubin increased, any grade [2, 3]: 2 (10.5) n (%) | Blood bilirubin increased, grade ≥ 3 [2, 3]: 1 (5.3) n (%) | Blood creatinine increased, any grade [2, 3]: 3 (15.8) n (%) | Blood creatinine increased, grade ≥ 3 [2, 3]: 0 n (%) | COVID-19, any grade [2, 3]: 1 (5.3) n (%) | COVID-19, grade ≥ 3 [2, 3]: 1 (5.3) n (%) | Decreased appetite, any grade [2, 3]: 4 (21.1) n (%) | Decreased appetite, grade ≥ 3 [2, 3]: 2 (10.5) n (%) | Diarrhea, any grade [2, 3]: 7 (36.8) n (%) | Diarrhea, grade ≥ 3 [2, 3]: 1 (5.3) n (%) | Fatigue, any grade [2, 3]: 4 (21.1) n (%) | Fatigue, grade ≥ 3 [2, 3]: 2 (10.5) n (%) | Gamma-glutamyl transferase increased, any grade [2, 3]: 1 (5.3) n (%) | Gamma-glutamyl transferase increased, grade ≥ 3 [2, 3]: 1 (5.3) n (%) | Hyperglycemia, any grade [2, 3]: 3 (15.8) n (%) | Hyperglycemia, grade ≥ 3 [2, 3]: 0 n (%) | Hypoalbuminemia, any grade [2, 3]: 0 n (%) | Hypoalbuminemia, grade ≥ 3 [2, 3]: 0 n (%) | Hypokalemia, any grade [2, 3]: 3 (15.8) n (%) | Hypokalemia, grade ≥ 3 [2, 3]: 1 (5.3) n (%) | Hyponatremia, any grade [2, 3]: 3 (15.8) n (%) | Hyponatremia, grade ≥ 3 [2, 3]: 1 (5.3) n (%) | Hypotension, any grade [2, 3]: 3 (15.8) n (%) | Hypotension, grade ≥ 3 [2, 3]: 1 (5.3) n (%) | Large intestinal obstruction, any grade [2, 3]: 1 (5.3) n (%) | Large intestinal obstruction, grade ≥ 3 [2, 3]: 1 (5.3) n (%) | Lymphocyte count decreased, any grade [2, 3]: 2 (10.5) n (%) | Lymphocyte count decreased, grade ≥ 3 [2, 3]: 0 n (%) | Nausea, any grade [2, 3]: 4 (21.1) n (%) | Nausea, grade ≥ 3 [2, 3]: 0 n (%) | Rash (group term), any grade [2, 3]: 2 (10.5) n (%) | Rash (group term), grade ≥ 3 [2, 3]: 0 n (%) | Sepsis, any grade [2, 3]: 1 (5.3) n (%) | Sepsis, grade ≥ 3 [2, 3]: 1 (5.3) n (%) | Thrombocytopenia, any grade [2, 3]: 0 n (%) | Thrombocytopenia, grade ≥ 3 [2, 3]: 0 n (%) | Ureteric obstruction, any grade [2, 3]: 1 (5.3) n (%) | Ureteric obstruction, grade ≥ 3 [2, 3]: 1 (5.3) n (%) | Urticaria, any grade [2, 3]: 0 n (%) | Urticaria, grade ≥ 3 [2, 3]: 0 n (%) | patients who experienced a grade 5 AE (sepsis) ([2]; part B, not considered related to capivasertib or midazolam): 4.8% | Abdominal pain, any grade [2, 4]: 1 (4.8) n (%) | Abdominal pain, grade ≥ 3 [2, 4]: 0 n (%) | Anemia, any grade [2, 4]: 2 (9.5) n (%) | Anemia, grade ≥ 3 [2, 4]: 1 (4.8) n (%) | Any AE, any grade [2, 4]: 10 (47.6) n (%) | Any AE, grade ≥ 3 [2, 4]: 3 (14.3) n (%) | Asthenia, any grade [2, 4]: 1 (4.8) n (%) | Asthenia, grade ≥ 3 [2, 4]: 0 n (%) | Blood alkaline phosphatase increased, any grade [2, 4]: 0 n (%) | Blood alkaline phosphatase increased, grade ≥ 3 [2, 4]: 0 n (%) | Blood bilirubin increased, any grade [2, 4]: 0 n (%) | Blood bilirubin increased, grade ≥ 3 [2, 4]: 0 n (%) | Blood creatinine increased, any grade [2, 4]: 0 n (%) | Blood creatinine increased, grade ≥ 3 [2, 4]: 0 n (%) | COVID-19, any grade [2, 4]: 0 n (%) | COVID-19, grade ≥ 3 [2, 4]: 0 n (%) | Decreased appetite, any grade [2, 4]: 0 n (%) | Decreased appetite, grade ≥ 3 [2, 4]: 0 n (%) | Diarrhea, any grade [2, 4]: 6 (28.6) n (%) | Diarrhea, grade ≥ 3 [2, 4]: 0 n (%) | Fatigue, any grade [2, 4]: 0 n (%) | Fatigue, grade ≥ 3 [2, 4]: 0 n (%) | Gamma-glutamyl transferase increased, any grade [2, 4]: 0 n (%) | Gamma-glutamyl transferase increased, grade ≥ 3 [2, 4]: 0 n (%) | Hyperglycemia, any grade [2, 4]: 1 (4.8) n (%) | Hyperglycemia, grade ≥ 3 [2, 4]: 0 n (%) | Hypoalbuminemia, any grade [2, 4]: 1 (4.8) n (%) | Hypoalbuminemia, grade ≥ 3 [2, 4]: 1 (4.8) n (%) | Hypokalemia, any grade [2, 4]: 1 (4.8) n (%) | Hypokalemia, grade ≥ 3 [2, 4]: 0 n (%) | Hyponatremia, any grade [2, 4]: 1 (4.8) n (%) | Hyponatremia, grade ≥ 3 [2, 4]: 0 n (%) | Hypotension, any grade [2, 4]: 0 n (%) | Hypotension, grade ≥ 3 [2, 4]: 0 n (%) | Large intestinal obstruction, any grade [2, 4]: 0 n (%) | Large intestinal obstruction, grade ≥ 3 [2, 4]: 0 n (%) | Lymphocyte count decreased, any grade [2, 4]: 1 (4.8) n (%) | Lymphocyte count decreased, grade ≥ 3 [2, 4]: 1 (4.8) n (%) | Nausea, any grade [2, 4]: 2 (9.5) n (%) | Nausea, grade ≥ 3 [2, 4]: 0 n (%) | Rash (group term), any grade [2, 4]: 0 n (%) | Rash (group term), grade ≥ 3 [2, 4]: 0 n (%) | Sepsis, any grade [2, 4]: 0 n (%) | Sepsis, grade ≥ 3 [2, 4]: 0 n (%) | Thrombocytopenia, any grade [2, 4]: 1 (4.8) n (%) | Thrombocytopenia, grade ≥ 3 [2, 4]: 1 (4.8) n (%) | Ureteric obstruction, any grade [2, 4]: 0 n (%) | Ureteric obstruction, grade ≥ 3 [2, 4]: 0 n (%) | Urticaria, any grade [2, 4]: 0 n (%) | Urticaria, grade ≥ 3 [2, 4]: 0 n (%) | Abdominal pain, any grade [2, 5]: 2 (9.5) n (%) | Abdominal pain, grade ≥ 3 [2, 5]: 1 (4.8) n (%) | Anemia, any grade [2, 5]: 6 (28.6) n (%) | Anemia, grade ≥ 3 [2, 5]: 1 (4.8) n (%) | Any AE, any grade [2, 5]: 21 (100) n (%) | Any AE, grade ≥ 3 [2, 5]: 14 (66.7) n (%) | Asthenia, any grade [2, 5]: 3 (14.3) n (%) | Asthenia, grade ≥ 3 [2, 5]: 1 (4.8) n (%) | Blood alkaline phosphatase increased, any grade [2, 5]: 1 (4.8) n (%) | Blood alkaline phosphatase increased, grade ≥ 3 [2, 5]: 1 (4.8) n (%) | Blood bilirubin increased, any grade [2, 5]: 2 (9.5) n (%) | Blood bilirubin increased, grade ≥ 3 [2, 5]: 1 (4.8) n (%) | Blood creatinine increased, any grade [2, 5]: 3 (14.3) n (%) | Blood creatinine increased, grade ≥ 3 [2, 5]: 0 n (%) | COVID-19, any grade [2, 5]: 2 (9.5) n (%) | COVID-19, grade ≥ 3 [2, 5]: 1 (4.8) n (%) | Decreased appetite, any grade [2, 5]: 5 (23.8) n (%) | Decreased appetite, grade ≥ 3 [2, 5]: 2 (9.5) n (%) | Diarrhea, any grade [2, 5]: 16 (76.2) n (%) | Diarrhea, grade ≥ 3 [2, 5]: 1 (4.8) n (%) | Fatigue, any grade [2, 5]: 7 (33.3) n (%) | Fatigue, grade ≥ 3 [2, 5]: 2 (9.5) n (%) | Gamma-glutamyl transferase increased, any grade [2, 5]: 1 (4.8) n (%) | Gamma-glutamyl transferase increased, grade ≥ 3 [2, 5]: 1 (4.8) n (%) | Hyperglycemia, any grade [2, 5]: 6 (28.6) n (%) | Hyperglycemia, grade ≥ 3 [2, 5]: 1 (4.8) n (%) | Hypoalbuminemia, any grade [2, 5]: 1 (4.8) n (%) | Hypoalbuminemia, grade ≥ 3 [2, 5]: 1 (4.8) n (%) | Hypokalemia, any grade [2, 5]: 5 (23.8) n (%) | Hypokalemia, grade ≥ 3 [2, 5]: 1 (4.8) n (%) | Hyponatremia, any grade [2, 5]: 4 (19.0) n (%) | Hyponatremia, grade ≥ 3 [2, 5]: 1 (4.8) n (%) | Hypotension, any grade [2, 5]: 4 (19.0) n (%) | Hypotension, grade ≥ 3 [2, 5]: 1 (4.8) n (%) | Large intestinal obstruction, any grade [2, 5]: 1 (4.8) n (%) | Large intestinal obstruction, grade ≥ 3 [2, 5]: 1 (4.8) n (%) | Lymphocyte count decreased, any grade [2, 5]: 3 (14.3) n (%) | Lymphocyte count decreased, grade ≥ 3 [2, 5]: 1 (4.8) n (%) | Nausea, any grade [2, 5]: 7 (33.3) n (%) | Nausea, grade ≥ 3 [2, 5]: 0 n (%) | Rash (group term), any grade [2, 5]: 8 (38.1) n (%) | Rash (group term), grade ≥ 3 [2, 5]: 3 (14.3) n (%) | Sepsis, any grade [2, 5]: 1 (4.8) n (%) | Sepsis, grade ≥ 3 [2, 5]: 1 (4.8) n (%) | Thrombocytopenia, any grade [2, 5]: 1 (4.8) n (%) | Thrombocytopenia, grade ≥ 3 [2, 5]: 1 (4.8) n (%) | Ureteric obstruction, any grade [2, 5]: 1 (4.8) n (%) | Ureteric obstruction, grade ≥ 3 [2, 5]: 1 (4.8) n (%) | Urticaria, any grade [2, 5]: 1 (4.8) n (%) | Urticaria, grade ≥ 3 [2, 5]: 1 (4.8) n (%) | patients who experienced a grade 4 AE (thrombocytopenia) ([2]; treatment period 2, not considered related to capivasertib or midazolam): 4.8%
